US20250320206A1, “STAT6 DEGRADERS” (Gilead Sciences, Inc., priority 2024, published 2025)

Legend:
STAT6 = target: T1, STAT6 (Homo sapiens, UniProt P42226); assay: Stat6 Degrader Assay (HiBiT based, HeLa LgBiT clone 4.14); type: cell-based; details: HeLa LgBiT clone 4.14 HiBiT-STAT6, 4-24 h incubation; values given for compounds with >80% Emax; geometric mean; read-out: STAT6 degradation DC50
T1 construct: These cells express endogenous STAT6; host or cells: HeLa LgBiT clone 4.14
T1 sequence (P42226 1-847): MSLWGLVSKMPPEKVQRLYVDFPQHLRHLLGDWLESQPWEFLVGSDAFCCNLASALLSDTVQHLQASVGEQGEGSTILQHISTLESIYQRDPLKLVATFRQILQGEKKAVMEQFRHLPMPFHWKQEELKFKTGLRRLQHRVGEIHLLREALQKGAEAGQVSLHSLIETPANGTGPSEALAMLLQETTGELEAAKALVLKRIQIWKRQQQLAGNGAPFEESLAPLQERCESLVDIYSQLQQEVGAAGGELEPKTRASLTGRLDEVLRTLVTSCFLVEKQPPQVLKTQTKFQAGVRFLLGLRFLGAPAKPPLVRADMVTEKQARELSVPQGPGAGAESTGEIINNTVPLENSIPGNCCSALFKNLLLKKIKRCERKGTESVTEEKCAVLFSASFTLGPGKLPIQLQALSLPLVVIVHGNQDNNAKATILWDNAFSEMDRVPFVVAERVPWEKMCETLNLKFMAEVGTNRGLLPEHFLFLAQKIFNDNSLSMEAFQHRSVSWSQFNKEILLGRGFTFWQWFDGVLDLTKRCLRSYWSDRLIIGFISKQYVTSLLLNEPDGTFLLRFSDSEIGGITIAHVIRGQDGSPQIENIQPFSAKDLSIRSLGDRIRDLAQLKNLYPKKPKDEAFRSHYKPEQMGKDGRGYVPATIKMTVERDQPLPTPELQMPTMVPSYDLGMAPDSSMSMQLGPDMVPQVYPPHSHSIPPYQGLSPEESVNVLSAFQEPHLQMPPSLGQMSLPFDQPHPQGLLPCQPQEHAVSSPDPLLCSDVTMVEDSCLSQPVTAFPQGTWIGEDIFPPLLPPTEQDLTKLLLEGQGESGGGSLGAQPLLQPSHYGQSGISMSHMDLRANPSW
How it was run: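 Luminescence from HiBiT-STAT6 complementing stably expressed LgBiT in HeLa clone 4.14 reports remaining STAT6 protein. Cells (5000/well) exposed to compound for 4-24 h at 37° C; read 0.5 h after Nano-Glo addition. 100% degradation window set with 50 μM terfenadine; percent degradation plotted against concentration.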

[1] = test system: Eotaxin-3 release in human whole blood stimulated with IL-4; assay: Human Whole Blood Eotaxin-3 Assay (IL-4 stimulated eotaxin-3 release); type: cell-based; details: IL-4 stimulation, 48 h, values given for compounds with >80% Emax, geometric mean
How it was run: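 Eotaxin-3 (CCL26) release measured by MSD kit in plasma supernatant after 48 h IL-4 stimulation ([…]) of human whole blood. Compounds added in triplicate 4-fold dilutions 2 h before stimulation; 0.5% DMSO final, 37° C, 5% CO2.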

Row | SMILES | DC50 (STAT6) [nM] | EC50 [1] [nM]
1 | CNc1ccn(-c2ccnc3c2cc(CN2CC=C(c4c(C)cc(C(=O)N5CCC(CN6CCN(Cc7ccc8c(c7)C(C)(C)C(=O)N8[C@@H]7CCC(=O)NC7=O)C[C@@H]6C)CC5)cc4F)CC2)n3C)c(=O)c1 (single isomer, unassigned) [Example 3u180] | 8.8 | 17.3
2 | CNc1cc(=O)n(-c2ccnc3c2cc([C@H](C)N2CC=C(c4c(C)cc(C(=O)N5CCC(CN6CCN(Cc7ccc8c(c7)C(C)(C)C(=O)N8C7CCC(=O)NC7=O)CC6)CC5)cc4F)CC2)n3C)cc1F (stereo partly drawn) [Example 3u87, 3-(5-((4-((1-(3-fluoro-4-(1-((S)-1-(4-(5-fluoro-4-(methylamino)-2-oxopyridin-1 (2H)-yl)-1-methyl-1H-pyrrolo[2,3-b]pyridin-2-yl)ethyl)-1,2,3,6-tetrahydropyridin-4-yl)-5-methylbenzoyl)piperidin-4-yl)methyl)piperazin-1-yl)methyl)-3,3-dimethyl-2-oxoindolin-1-yl)piperidine-2,6-dione] | 3.5 | 15.2
3 | CNc1cc(=O)n(-c2ccnc3c2cc([C@H](C)N2CC=C(c4c(C)cc(C(=O)N5CCC(CN6CCN(c7ccc8c(c7)C7(CC7)C(=O)N8[C@@H]7CCC(=O)NC7=O)C[C@@H]6C)CC5)cc4F)CC2)n3C)cc1F (single isomer, unassigned) [Example 3u64] | 7.3 | 50.3
4 | CNc1cc(=O)n(-c2ccnc3c2cc([C@H](C)N2CC=C(c4c(C)cc(C(=O)N5CCC(CN6CCN(Cc7cc8c(cc7F)N([C@@H]7CCC(=O)NC7=O)C(=O)C87CC7)CC6)CC5)cc4F)CC2)n3C)cc1F (single isomer, unassigned) [Example 3u153] | 4.1 | 8.7
5 | CNc1cc(=O)n(-c2ccnc3c2cc([C@H](C)N2CC=C(c4c(C)cc(C(=O)N5CCC(CN6CCN(Cc7ccc8c(c7)C(C)(C)C(=O)N8[C@H]7CCC(=O)NC7=O)CC6)CC5)cc4F)CC2)n3C)cc1F (single isomer, unassigned) [Example 3u88] | 3.3 | 12.9
6 | CNc1cc(=O)n(-c2ccnc3c2cc(CN2CC=C(c4c(F)cc(C(=O)N5CCC(CN6CCN(Cc7ccc8c(c7)C(C)(C)C(=O)N8C7CCC(=O)NC7=O)C[C@@H]6C)CC5)cc4F)CC2)n3C)cc1F (stereo partly drawn) [Example 3u77, 3-(5-(((S)-4-((1-(3,5-difluoro-4-(1-((4-(5-fluoro-4-(methylamino)-2-oxopyridin-1 (2H)-yl)-1-methyl-1H-pyrrolo[2,3-b]pyridin-2-yl)methyl)-1,2,3,6-tetrahydropyridin-4-yl)benzoyl)piperidin-4-yl)methyl)-3-methylpiperazin-1-yl)methyl)-3,3-dimethyl-2-oxoindolin-1-yl)piperidine-2,6-dione] | 16.1 | 24.1
7 | CNc1ccn(-c2ccnc3c2cc([C@H](C)N2CC=C(c4c(C)cc(C(=O)N5CCC(CN6CCN(Cc7ccc8c(c7)C(C)(C)C(=O)N8[C@@H]7CCC(=O)NC7=O)C[C@@H]6C)CC5)cc4F)CC2)n3C)c(=O)c1 (single isomer, unassigned) [Example 3u177] | 1.8 | 3.1
8 | CNc1ccn(-c2ccnc3c2cc(CN2CCC(c4c(F)cc(C(=O)N5CCC(CN6CCN(Cc7ccc8c(c7)C(C)(C)C(=O)N8[C@H]7CCC(=O)NC7=O)C[C@@H]6C)CC5)cc4F)CC2)n3C)c(=O)c1 (single isomer, unassigned) [Example 3u205] | 3 | 5.9
9 | CNc1cc(=O)n(-c2ccnc3c2cc([C@H](C)N2CC=C(c4c(C)cc(C(=O)N5CCC(CN6CCN(Cc7ccc8c(c7)n(C7CC7)c(=O)n8[C@H]7CCC(=O)NC7=O)C[C@@H]6C)CC5)cc4F)CC2)n3C)cc1F (single isomer, unassigned) [Example 3u119] | 2.1 | 2.2
10 | CNc1ccn(-c2ccnc3c2cc([C@H](C)N2CC=C(c4c(C)cc(C(=O)N(C)C5CCC(N6CCN(Cc7ccc8c(c7)n(C)c(=O)n8C7CCC(=O)NC7=O)CC6)CC5)cc4F)CC2)n3C)c(=O)c1 (stereo partly drawn) [Example 3u238, N-(4-(4-((1-(2,6-dioxopiperidin-3-yl)-3-methyl-2-oxo-2,3-dihydro-1H-benzo[d]-imidazol-5-yl)methyl)piperazin-1-yl)cyclohexyl)-3-fluoro-N,5-dimethyl-4-(1-((S)-1-(1-methyl-4-(4-(methylamino)-2-oxopyridin-1 (2H)-yl)-1H-pyrrolo[2,3-b]pyridin-2-yl)ethyl)-1,2,3,6-tetrahydropyridin-4-yl)benzamide] | 1.4 | 3.2
11 | CNc1cc(=O)n(-c2ccnc3c2cc(CN2CCC(c4c(F)cc(C(=O)N5CCC(CN6CCN(Cc7ccc8c(c7)C(C)(C)C(=O)N8C7CCC(=O)NC7=O)C[C@@H]6C)CC5)cc4F)CC2)n3C)cc1F (stereo partly drawn) [Example 3u48, 3-(5-(((S)-4-((1-(3,5-difluoro-4-(1-((4-(5-fluoro-4-(methylamino)-2-oxopyridin-1 (2H)-yl)-1-methyl-1H-pyrrolo[2,3-b]pyridin-2-yl)methyl)piperidin-4-yl)benzoyl)piperidin-4-yl)methyl)-3-methylpiperazin-1-yl)methyl)-3,3-dimethyl-2-oxoindolin-1-yl)piperidine-2,6-dione] | 11.2 | 7.7
12 | CNc1cc(=O)n(-c2ccnc3c2cc([C@H](C)N2CC=C(c4c(C)cc(C(=O)N(C)c5ccc(N6CCN(Cc7ccc8c(c7)C7(CC7)C(=O)N8C7CCC(=O)NC7=O)CC6)nc5)cc4F)CC2)n3C)cc1F (stereo partly drawn) [Example 3u239, N-(6-(4-((1′-(2,6-dioxopiperidin-3-yl)-2′-oxospiro[cyclopropane-1,3′-indolin]-5′-yl)-methyl)piperazin-1-yl)pyridin-3-yl)-3-fluoro-4-(1-((S)-1-(4-(5-fluoro-4-(methylamino)-2-oxopyridin-1 (2H)-yl)-1-methyl-1H-pyrrolo[2,3-b]pyridin-2-yl)ethyl)-1,2,3,6-tetrahydropyridin-4-yl)-N,5-dimethyl-benzamide] | 0.1 | 1.2
13 | CNc1ccn(-c2ccnc3c2cc([C@H](C)N2CC=C(c4c(C)cc(C(=O)N5CCC(CN6CCN(Cc7cc8c(cc7F)N([C@@H]7CCC(=O)NC7=O)C(=O)C8(C)C)C[C@@H]6C)CC5)cc4F)CC2)n3C)c(=O)c1 (single isomer, unassigned) [Example 3u183] | 5.9 | 8
14 | CNc1cc(=O)n(-c2ccnc3c2cc([C@H](C)N2CC=C(c4c(C)cc(C(=O)N5CCC(CN6CCN(c7ccc8c(c7)n(C)c(=O)n8C7CCC(=O)NC7=O)CC6)CC5)cc4F)CC2)n3C)cc1F (stereo partly drawn) [Example 3u298, 3-(5-(4-((1-(3-fluoro-4-(1-((S)-1-(4-(5-fluoro-4-(methylamino)-2-oxopyridin-1 (2H)-yl)-1-methyl-1H-pyrrolo[2,3-b]pyridin-2-yl)ethyl)-1,2,3,6-tetrahydropyridin-4-yl)-5-methylbenzoyl)-piperidin-4-yl)methyl)piperazin-1-yl)-3-methyl-2-oxo-2,3-dihydro-1H-benzo[d]imidazol-1-yl)-piperidine-2,6-dione] | 1.8 | 2.6
15 | CNc1ccn(-c2ccnc3c2cc([C@H](C)N2CCC(c4c(C)cc(C(=O)N(C)c5ccc(C6CCN(Cc7ccc8c(c7)n(C)c(=O)n8C7CCC(=O)NC7=O)CC6)cc5)cc4F)CC2)n3C)c(=O)c1 (stereo partly drawn) [Example 3u249, N-(4-(1-((1-(2,6-dioxopiperidin-3-yl)-3-methyl-2-oxo-2,3-dihydro-1H-benzo[d]-imidazol-5-yl)methyl)piperidin-4-yl)phenyl)-3-fluoro-N,5-dimethyl-4-(1-((S)-1-(1-methyl-4-(4-(methyl-amino)-2-oxopyridin-1 (2H)-yl)-1H-pyrrolo[2,3-b]pyridin-2-yl)ethyl)piperidin-4-yl)benzamide] | 0.6 | 1.4
16 | CNc1cc(=O)n(-c2ccnc3c2cc([C@H](C)N2CC=C(c4c(F)cc(C(=O)N5CCC(CN6CCN(Cc7ccc8c(c7)n(C)c(=O)n8[C@@H]7CCC(=O)NC7=O)CC6)CC5)cc4F)CC2)n3C)cc1F (single isomer, unassigned) [Example 3u53] | 8.7 | 1.1
17 | CNc1ccn(-c2ccnc3c2cc([C@H](C)N2CC=C(c4c(F)cc(C(=O)N5CCC(CN6CCN(Cc7ccc8c(c7)n(C7CC7)c(=O)n8[C@H]7CCC(=O)NC7=O)C[C@@H]6C)CC5)cc4F)CC2)n3C)c(=O)c1 (single isomer, unassigned) [Example 3u211] | 0.5 | 0.5
